Measurements from patent US11591300B2, “Oxazole containing compounds as activators of IDO1 and AhR” (The Brigham and Women's Hospital, Inc., priority 2017, dated 2023).
One block for each molecule: values may come before it.

Columns and labels:
MODE-K cells [1] = experiment: Relative transcript abundance of target genes in MODE-K cells conditioned with compounds; settings: for Mttp transcripts / Ido1 transcripts: MODE-K cells conditioned with compound, normalized to β-actin
Description: 4-ethoxymethylene-2-phenyl-2-oxazol-5-one, (referred to as oxazolone, FIG. 1A) has been widely utilized in models of contact hypersensitivity and when applied to the mucosa has been proposed to cause colitis through its properties as a hapten (Gorbachev and Fairchild 2001). However to date there is limited evidence for hapten-specific antibody production or responses following topical oxazolone sensitization or hapten modified autologous proteins or luminal antigens identified at mucosal sites (Singleton et al. 2016, Yanaba et al. 2008, Wirtz et al. 2007). […] It was then determined whether oxazolone could affect the expression of these transcripts in the intestinal epithelium in a cell intrinsic manner by directly stimulating an immortalized intestinal epithelial cell line (IEC) derived from mouse small intestine, MODE-K, with oxazolone.
To test this, a systematic in vitro system was devised to assess transcriptional and CD1d-restricted responses in IECs in response to stimulation with dietary OxC structures, including 2,4,5-trimethyl-2,5-dihydro-1,3-oxazole (referred to as TMO, FIG. 1A) found in coffee, peanuts, meats and utilized as a food additive, which lacks the 2-phenyl ring, 5-ketone, and 4-ethoxymethylene present in oxazolone (Vitzthum et al. 1975, Stoffesima et al. 1968, Lee et al. 1981, Chang et al. 1968, Ho and Hartman 1968).

MODE-K cells [2] = experiment: CD1d-restricted IL-10 production in MODE-K:NKT cell hybridoma co-culture; assay type: cell-based, mouse; settings: for effect of the supplement on IEC responses to oxazolone (CD1d-restricted IL-10 production): tryptophan-deficient media, oxazolone stimulation
IECs [3] = experiment: In vitro system to assess transcriptional and CD1d-restricted responses in IECs (FIG. 13 summary); assay type: cell-based
AhR = target: T1, AhR (Homo sapiens, UniProt P35869); settings: Wambaugh et al. 2014, Dierickx 2004; cited from earlier work
T1 sequence (P35869 11-848): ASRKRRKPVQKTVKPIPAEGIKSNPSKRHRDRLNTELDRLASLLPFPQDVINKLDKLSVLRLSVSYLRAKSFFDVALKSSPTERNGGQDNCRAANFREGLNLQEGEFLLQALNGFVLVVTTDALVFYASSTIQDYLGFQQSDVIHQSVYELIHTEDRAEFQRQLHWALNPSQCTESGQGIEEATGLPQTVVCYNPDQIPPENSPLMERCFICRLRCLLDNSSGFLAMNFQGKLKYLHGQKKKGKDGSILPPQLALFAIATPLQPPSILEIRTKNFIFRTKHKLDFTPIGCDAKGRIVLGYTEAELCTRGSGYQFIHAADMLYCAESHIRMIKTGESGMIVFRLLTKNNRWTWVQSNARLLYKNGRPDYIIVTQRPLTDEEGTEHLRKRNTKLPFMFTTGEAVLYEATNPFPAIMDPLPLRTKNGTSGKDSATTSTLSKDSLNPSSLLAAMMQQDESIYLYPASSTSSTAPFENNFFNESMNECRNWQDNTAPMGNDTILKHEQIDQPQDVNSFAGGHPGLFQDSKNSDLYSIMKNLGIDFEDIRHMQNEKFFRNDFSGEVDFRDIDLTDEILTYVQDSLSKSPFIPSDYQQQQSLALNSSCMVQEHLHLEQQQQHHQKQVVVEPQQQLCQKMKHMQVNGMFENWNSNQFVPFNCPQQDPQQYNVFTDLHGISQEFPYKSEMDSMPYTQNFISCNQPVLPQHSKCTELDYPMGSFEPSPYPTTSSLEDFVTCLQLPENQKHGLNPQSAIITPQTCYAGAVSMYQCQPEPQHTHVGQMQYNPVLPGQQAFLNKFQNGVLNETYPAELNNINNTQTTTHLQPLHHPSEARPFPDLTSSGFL

C57Bl/6 mice = experiment: Intra-rectal administration, colonic inflammation in vivo; design: species or system mouse
Experimental: It was tested whether a dietary sourced minimal oxazole structure was sufficient to induce intestinal inflammation in vivo. […] To confirm this, the ability of oxazolone skin pre-sensitization to affect the responses to rectal challenge with TMO and vice-versa (FIG. 9D).
Next, it was tested whether B17 microcin derivatives could induce intestinal inflammation in vivo. Therefore, adequate quantities of a minimal B17 derivative (termed frag-oz, FIG. 2D) were synthesized to perform in vivo experiments and challenged animals via intra-rectal administration. […] These studies identify an oxazole containing microbial mimic that promotes CD1d-dependent intestinal inflammation independent of its classical anti-microbial activity.
These studies reveal a novel role for epithelial derived AhR signals in promoting mucosal inflammation when exposed to OxC.

[4] = target: T2, aryl hydrocarbon receptor (AhR) (Mus musculus, UniProt P30561); experiment: AhR firefly luciferase reporter in IECs; assay type: cell-based; settings: compared to vehicle or 1,2,4-trimethylcyclopentane
T2 construct: IECs were transfected with an AhR firefly luciferase reporter; endogenous in cells; host or cells: MODE-K (mouse intestinal epithelial cell line)
T2 sequence (P30561 10-848): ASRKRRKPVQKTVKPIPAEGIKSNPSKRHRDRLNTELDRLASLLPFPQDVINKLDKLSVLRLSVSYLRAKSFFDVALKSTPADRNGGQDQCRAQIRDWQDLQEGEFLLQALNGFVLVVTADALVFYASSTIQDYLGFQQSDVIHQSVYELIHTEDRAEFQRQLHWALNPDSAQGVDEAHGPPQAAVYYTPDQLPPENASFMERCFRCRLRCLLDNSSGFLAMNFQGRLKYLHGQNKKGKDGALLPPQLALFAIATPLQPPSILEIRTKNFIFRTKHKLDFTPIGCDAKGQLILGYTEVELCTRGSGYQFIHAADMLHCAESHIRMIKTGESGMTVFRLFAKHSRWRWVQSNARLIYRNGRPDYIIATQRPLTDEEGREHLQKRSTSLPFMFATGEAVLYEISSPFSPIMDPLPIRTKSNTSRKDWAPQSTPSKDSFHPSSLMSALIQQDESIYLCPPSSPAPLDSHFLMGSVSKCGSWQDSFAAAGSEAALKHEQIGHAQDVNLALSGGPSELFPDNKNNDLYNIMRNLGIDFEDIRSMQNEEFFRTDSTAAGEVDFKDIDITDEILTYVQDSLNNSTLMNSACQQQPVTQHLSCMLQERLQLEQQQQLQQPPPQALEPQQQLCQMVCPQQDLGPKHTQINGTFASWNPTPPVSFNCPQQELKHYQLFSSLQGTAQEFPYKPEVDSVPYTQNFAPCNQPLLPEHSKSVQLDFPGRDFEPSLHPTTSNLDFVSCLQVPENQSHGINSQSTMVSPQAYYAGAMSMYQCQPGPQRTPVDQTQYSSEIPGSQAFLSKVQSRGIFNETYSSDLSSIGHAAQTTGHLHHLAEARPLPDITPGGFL

recombinant IDO1 = recombinant IDO1 (Homo sapiens, UniProt P14902); experiment: Recombinant IDO1 conversion of L-tryptophan to formyl-kyneurenine; assay type: biochemical; settings: compared to control (TMC) or vehicle
recombinant IDO1, sequence (P14902 whole entry, species assumed): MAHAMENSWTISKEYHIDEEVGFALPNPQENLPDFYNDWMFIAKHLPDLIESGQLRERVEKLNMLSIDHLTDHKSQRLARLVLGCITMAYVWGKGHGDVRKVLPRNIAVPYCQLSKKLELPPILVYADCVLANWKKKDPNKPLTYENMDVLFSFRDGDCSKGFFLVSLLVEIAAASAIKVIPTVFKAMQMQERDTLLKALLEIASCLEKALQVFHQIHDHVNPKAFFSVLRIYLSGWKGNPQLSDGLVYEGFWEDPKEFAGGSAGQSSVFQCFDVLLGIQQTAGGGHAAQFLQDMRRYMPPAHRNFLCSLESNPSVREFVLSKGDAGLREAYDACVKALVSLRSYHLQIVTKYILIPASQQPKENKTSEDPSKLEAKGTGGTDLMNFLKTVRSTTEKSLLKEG

[5] = Wambaugh et al. 2014; cited from earlier work
primary hepatocytes = experiment: IL-10 production from primary hepatocytes co-cultured with 24.7 iNKT hybridoma; settings: response to iNKT cells in the presence of α-GC
MODE-K cells [6] = experiment: Surface CD1d loaded with α-GC (L363 antibody staining) in MODE-K cells; assay type: cell-based, mouse
Description: In light of the decreased MTP expression observed in oxazolone treated IECs (FIG. 1B) and given that MTP loss alters the ability of CD1d to acquire exogenous antigens, such as α-GC, and CD1d elicited IL-10 responses by epithelial cells (Dougan et al. 2005, Dougan et al. 2007, Zeissig et al 2017, Sagiv et al. 2007, Brozovic et al. 2004, Olszak et al. 2014), it was investigated whether CD1d expression and lipid loading on oxazolone conditioned IECs.

IECs [7] = experiment: LC-MS of deuterated L-trp (D5-Trp) metabolites in IEC lysates; assay type: cell-based; settings: within 6 hours of exposure
Experimental: IDO1 is a rate-limiting enzyme involved in tryptophan catabolism that generates formyl-kyneurenine which can be further metabolized into a variety of AhR agonists (Higuchi and Hayaishi Arch Biochem Biophys 1967, Nguyen and Bradfield 2008, Zelante et al. 2014). […] To specifically identify these tryptophan derived products, IECs were cultured with deuterated L-trp (D5-Trp) and performed high performance liquid chromatography mass spectrometry (LC-MS) on lysates stimulated with oxazolone, TMO, frag-oz or TMC control (FIG. 5C). […] Taken together these latter studies are consistent with a model in which exposure of IECs to oxazole containing compounds leads to the activation of IDO1 and generation of tryptophan-derived metabolites that induce the AhR pathway to downregulate CD1d-restricted responses associated with the production of IL-10 (FIG. 6).

[8] = MODE-K pre-conditioned with compound, loaded with α-GC, co-culture with 24.7 iNKT hybridoma
[9] = supplement alone or in conjunction with TMC stimulation
[10] = IEC enriched colonic fractions after intra-rectal administration
[11] = intra-rectal administration, wildtype

Compound: CC1=NCCC1 [1-MP, 2-methyl-1-pyrroline, reference compound]
Cyp1a1 transcripts (MODE-K cells [1]): did not elicit any transcriptional changes | Mttp transcripts (MODE-K cells [1]): did not elicit any transcriptional changes

Compound: COC(=O)c1csc(C(=O)c2c[nH]c3ccccc23)n1 [ITE, 2-(H-Indol-3-carbonyl)-4-thiazolecarboxylic acid methyl ester, reference compound]
CD1d-restricted IL-10 production (MODE-K cells [2]; [8]): did not modulate | Mttp transcripts (MODE-K cells [1]): did not modulate

Compound: N[C@@H](Cc1c[nH]c2ccccc12)C(=O)O [L-Trp, L-tryptophan, reference compound]
CD1d-restricted IL-10 production (MODE-K cells [2]; [9]): had no effect | effect of the supplement on IEC responses to oxazolone (CD1d-restricted IL-10 production) (MODE-K cells [2]): restored IEC responses to oxazolone

Compound: O=C(O)c1cc(=O)c2ccccc2[nH]1 [kyneurenic acid, reference compound]
CD1d-restricted IL-10 production (MODE-K cells [2]; [9]): had no effect

Compound: C=CC1(C)OC(=O)N(c2cc(Cl)cc(Cl)c2)C1=O (stereo not shown) [vinclozolin]
Cyp1a1 transcripts (MODE-K cells [1]): induced expression of these genes in vitro and in vivo | Ido1 transcripts (MODE-K cells [1]): induced expression of these genes in vitro and in vivo | transcriptional and CD1d-restricted epithelial responses relative to oxazolone stimulation (IECs [3]): phenocopied | AhR activation (AhR): AhR activator

ability of IDO1 to convert tryptophan to formyl-kyneurenine (recombinant IDO1): enhanced | compound induced inhibition of IL-10 production in hepatocytes from Ahr−/− mice (primary hepatocytes): resistance
Compound: CC1=NC(C)OC1C (stereo not shown) [TMO, 2,4,5-trimethyl-2,5-dihydro-1,3-oxazole]
Cyp1a1 transcripts in IEC in vivo (C57Bl/6 mice; [10]): induction of cyp1a1 | Mttp transcripts in IEC in vivo (C57Bl/6 mice; [10]): downregulation of Mttp | Th1 and Th2 cytokines (IL-13, IFN-γ) from colon explants (C57Bl/6 mice; [11]): production of Th2 and Th1 cytokines including IL-13 and IFN-γ | colon length (C57Bl/6 mice; [11]): colon shortening | histological pathology of the colon (C57Bl/6 mice; [11]): histological pathology characterized by superficial inflammation of the gut wall, neutrophil accumulation and ulceration of the epithelial layer of the colon | weight loss (C57Bl/6 mice; [11]): increased weight loss | clinical symptoms, pathology, inflammation in CD1d-deficient animals (C57Bl/6 mice; intra-rectal challenge, CD1d-deficient (KO) vs WT): no evidence of clinical symptoms or pathology | effect of skin pre-sensitization with the other compound (oxazolone or TMO) on rectal responses (C57Bl/6 mice; topical sensitization followed by intra-rectal challenge): did not affect | AhR transcriptional activity [4]: induced robust AhR transcriptional activity | compound induced inhibition of CD1d-restricted IL-10 production when AhR expression is silenced (MODE-K cells [2]; AhR siRNA, IEC:iNKT cell co-cultures): reversed | CD1d-restricted IL-10 production (MODE-K cells [2]; IECs cultured in tryptophan-deficient media): no longer attenuated | CD1d-restricted IL-10 production (MODE-K cells [2]; [8]): limited | IL-10 production (MODE-K cells [2]; tryptophan-deficient conditions supplemented with kyneurenic acid): decreased IL-10 production | decrease of IL-10 production when AhR was silenced (MODE-K cells [2]; tryptophan-deficient conditions supplemented with kyneurenic acid, AhR siRNA): reduced when AhR was silenced | CD1d-restricted IL-10 production (MODE-K cells [2]; tryptophan-deficient media supplemented with exogenous L-tryptophan): attenuation of CD1d-restricted IL-10 production | detection in human urine [5]: detected in human urine | compound induced reduction of cell surface CD1d lipid antigen loading when AhR expression is silenced (MODE-K cells [6]; AhR siRNA): reversed | loading of α-GC on CD1d at the cell surface (L363 staining) (MODE-K cells [6]; MODE-K cells conditioned with compound): decreased cell surface staining | metabolite that D5-Trp was further metabolized to upon stimulation (IECs [7]): xanthurenic acid | Ido1 transcripts (MODE-K cells [1]): induced expression of these genes in vitro and in vivo | Mttp transcripts (MODE-K cells [1]): suppressed

Compound: CC1CC(C)C(C)C1 (stereo not shown) [TMC, 1,2,4-trimethyl cyclopentane, reference compound]
Cyp1a1 transcripts (MODE-K cells [1]): did not elicit any transcriptional changes | Mttp transcripts (MODE-K cells [1]): did not elicit any transcriptional changes

Compound: Cn1cc(C[C@@H](N)C(=O)O)c2ccccc21 (racemic) [DL-methyl tryptophan, reference compound]
effect of the supplement on IEC responses to oxazolone (CD1d-restricted IL-10 production) (MODE-K cells [2]): did not restore suppression
